From paper PMC10441322 (bioRxiv, 2023) come the findings set out here.

Experiment [1] has as its target T1, Shaker voltage-gated potassium channel (Drosophila melanogaster, UniProt P08510). Description: cut-open voltage clamp of Shaker in Xenopus oocytes, […] mV, pH […]. In kind it is cell-based.
For another experiment, the target named is CYP2E1 (Homo sapiens, UniProt P05181). Description: Vivid CYP2E1 fluorogenic competitive inhibition assay, dose-response. It is filed as biochemical.
In experiment [2] the target is T1, Shaker voltage-gated potassium channel. Description: cut-open voltage clamp of Shaker in Xenopus laevis oocytes, […] mV, pH […]. It is filed as cell-based.

Structures are written as SMILES.

T1 sequence (P08510 whole entry): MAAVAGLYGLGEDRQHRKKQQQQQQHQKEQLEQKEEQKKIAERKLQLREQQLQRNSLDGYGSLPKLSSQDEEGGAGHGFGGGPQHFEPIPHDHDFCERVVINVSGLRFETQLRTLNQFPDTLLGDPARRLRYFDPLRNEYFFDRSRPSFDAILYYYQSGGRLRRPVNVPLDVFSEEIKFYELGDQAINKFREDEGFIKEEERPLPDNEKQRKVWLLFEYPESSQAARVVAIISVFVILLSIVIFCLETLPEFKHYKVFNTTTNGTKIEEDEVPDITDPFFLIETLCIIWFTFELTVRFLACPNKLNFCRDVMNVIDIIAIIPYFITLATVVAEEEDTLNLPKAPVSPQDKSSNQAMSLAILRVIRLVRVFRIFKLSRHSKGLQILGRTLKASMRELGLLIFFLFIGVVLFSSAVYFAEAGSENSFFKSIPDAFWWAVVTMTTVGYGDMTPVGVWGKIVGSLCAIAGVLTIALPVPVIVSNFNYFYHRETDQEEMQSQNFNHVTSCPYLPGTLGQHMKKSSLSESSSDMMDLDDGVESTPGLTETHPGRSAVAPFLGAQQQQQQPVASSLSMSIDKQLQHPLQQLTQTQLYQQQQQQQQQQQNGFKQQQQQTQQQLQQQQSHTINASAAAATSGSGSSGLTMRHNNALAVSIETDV
Chain of CYP2E1 (P16435 2-677): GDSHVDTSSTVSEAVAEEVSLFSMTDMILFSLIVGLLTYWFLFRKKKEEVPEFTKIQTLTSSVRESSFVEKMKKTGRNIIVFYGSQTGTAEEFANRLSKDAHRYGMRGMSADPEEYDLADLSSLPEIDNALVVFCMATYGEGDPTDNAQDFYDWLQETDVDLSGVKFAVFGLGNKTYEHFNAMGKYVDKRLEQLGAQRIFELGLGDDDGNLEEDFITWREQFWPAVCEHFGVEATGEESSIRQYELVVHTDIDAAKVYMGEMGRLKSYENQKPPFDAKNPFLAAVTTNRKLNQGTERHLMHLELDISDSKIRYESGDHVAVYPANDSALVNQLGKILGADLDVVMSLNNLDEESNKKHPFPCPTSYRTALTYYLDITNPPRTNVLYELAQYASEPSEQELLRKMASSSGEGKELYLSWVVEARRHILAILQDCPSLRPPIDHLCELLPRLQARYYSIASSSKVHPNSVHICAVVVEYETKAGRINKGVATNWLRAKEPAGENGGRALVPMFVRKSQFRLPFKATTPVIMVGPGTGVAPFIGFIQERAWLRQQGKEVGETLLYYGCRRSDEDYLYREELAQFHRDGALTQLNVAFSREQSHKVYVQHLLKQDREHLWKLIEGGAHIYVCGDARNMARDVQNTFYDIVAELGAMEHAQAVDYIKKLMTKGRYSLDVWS
Chain of CYP2E1 (P05181 whole entry): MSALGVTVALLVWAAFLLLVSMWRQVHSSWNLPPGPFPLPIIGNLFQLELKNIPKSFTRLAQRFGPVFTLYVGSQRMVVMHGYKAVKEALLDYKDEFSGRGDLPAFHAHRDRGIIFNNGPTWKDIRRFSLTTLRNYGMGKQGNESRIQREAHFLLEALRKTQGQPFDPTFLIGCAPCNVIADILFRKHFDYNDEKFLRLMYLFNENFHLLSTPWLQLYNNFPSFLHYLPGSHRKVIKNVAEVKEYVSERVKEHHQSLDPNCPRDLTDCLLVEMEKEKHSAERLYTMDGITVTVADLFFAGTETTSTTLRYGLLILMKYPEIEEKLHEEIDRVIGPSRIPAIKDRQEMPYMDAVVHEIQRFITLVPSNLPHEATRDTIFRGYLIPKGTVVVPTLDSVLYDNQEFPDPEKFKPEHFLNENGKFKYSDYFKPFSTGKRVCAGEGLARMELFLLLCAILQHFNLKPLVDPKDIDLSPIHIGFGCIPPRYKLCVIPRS

With `Nc1ccncc1F` [3F4AP, 3-fluoro-4-aminopyridine], the IC50 in experiment [1] was determined as 122 µM; on CYP2E1, 17 µM. The compound `Cc1cnccc1N` [3Me4AP] yielded a concentration for half-maximal inhibition (IC50) in experiment [1] of 66 µM. Consider `Cc1cncc(F)c1N` [5Me3F4AP, 3-fluoro-5-methylpyridin-4-amine], for which the half-inhibitory concentration (IC50) worked out at 35.9 µM on CYP2E1 and 301 µM in experiment [2].

What is called IC50 is the concentration that gives 50% inhibition. A low value points to greater potency in that assay.
